Where “and” joins values, the source holds several entries; their conditions need not be identical. Identical values can stand only once. Calls of active or inactive are those of the source. No rule for the calls is given here.
Biological target: Dihydrolipoyl dehydrogenase (Mycobacterium tuberculosis (strain ATCC 25618 / H37Rv)) (UniProt P9WHH9)
Test: Mycobacterium tuberculosis lipoamide dehydrogenase inhibition, DTNB colorimetric coupled assay, dose response confirmation, dry powder (AID 1053164)
Conditions: Purified M. tb Lpd, DTNB colorimetric plate reader

Row | Structure (SMILES) | IC50
1 | CO[C@H]1CC[C@H]2CCN(C)C(=O)[C@@H](C)N(C)C(=O)c3c(C(F)(F)F)ccnc3OC[C@@H]1O2 | > 100 µM (inactive)
2 | CO[C@H]1CC[C@H]2CCN(C)C(=O)CCCN(C)C(=O)c3cccnc3OC[C@@H]1O2 | > 100 µM (inactive)
3 | CO[C@H]1CC[C@H]2CCN(C)C(=O)[C@@H](Cc3ccccc3)N(C)C(=O)c3cccc(C#N)c3OC[C@@H]1O2 | > 100 µM (inactive)
4 | CO[C@H]1CC[C@H]2CCN(C)C(=O)[C@@H](C)N(C)C(=O)c3cccc(C#N)c3OC[C@@H]1O2 | 6 µM and > 100 µM (inactive)
5 | CO[C@H]1CC[C@H]2CCN(C)C(=O)CCCN(C)C(=O)c3cc(Cl)cnc3OC[C@@H]1O2 | > 100 µM (inactive)
6 | CO[C@H]1CC[C@H]2CCN(C)C(=O)[C@H]3CCCN3C(=O)c3cccc(C#N)c3OC[C@@H]1O2 | > 100 µM (inactive)
7 | CO[C@H]1CC[C@H]2CCN(C)C(=O)CCCN(C)C(=O)c3cccc(C#N)c3OC[C@@H]1O2 | > 100 µM (inactive)
8 | CO[C@H]1CC[C@H]2CC(=O)N(C)CCN(C)C(=O)c3cccc(C#N)c3OC[C@@H]1O2 | > 100 µM (inactive)
9 | CO[C@H]1CC[C@H]2CCN(C)C(=O)[C@@H](c3ccccc3)N(C)C(=O)c3cccc(C#N)c3OC[C@@H]1O2 | > 100 µM (inactive)
10 | CO[C@H]1CC[C@H]2CCN(C)C(=O)[C@@H](C)N(C)C(=O)c3cc(Cl)cnc3OC[C@@H]1O2 | 25 µM
11 | CO[C@H]1CC[C@H]2CCN(C)C(=O)[C@@H](C)N(C)C(=O)c3ccc(F)nc3OC[C@@H]1O2 | > 100 µM (inactive)
12 | CO[C@H]1CC[C@H]2CCN(C)C(=O)[C@@H](C)N(C)C(=O)c3cccnc3OC[C@@H]1O2 | > 100 µM (inactive)
13 | CO[C@H]1CC[C@H]2CCN(C)C(=O)[C@@H](C(C)C)N(C)C(=O)c3cccc(C#N)c3OC[C@@H]1O2 | > 100 µM (inactive)
14 | CO[C@H]1CC[C@H]2CCN(C)C(=O)CCN(C)C(=O)c3cccc(C#N)c3OC[C@@H]1O2 | > 100 µM (inactive)
15 | CCCC[C@@H]1C(=O)N(C)CC[C@@H]2CC[C@H](OC)[C@H](COc3c(C#N)cccc3C(=O)N1C)O2 | > 100 µM (inactive)
16 | CO[C@H]1CC[C@H]2CCN(C)C(=O)CN(C)C(=O)c3cccc(C#N)c3OC[C@@H]1O2 | > 100 µM (inactive)
